16 compounds from PubChem BioAssay (NCI) can be followed below.

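Five concentrations, 48 hours, 96-well plates. At the GI50, growth is halved. TGI is the concentration that stops growth completely.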

Some test systems named below: U251 CNS; MALME-3M melanoma; ACHN renal; HOP-92 NSCLC; MOLT-4 leukemia; IGROV1 ovarian; A549 NSCLC; BT-549 breast; MDA-MB-231 breast.
Holding throughout (assay): DTP human tumour cell line panel, 48 h

One may read the TGI as the concentration at which net growth stops. Low readings indicate greater sensitivity of the cells, high ones lower sensitivity of the cells. Regarding `CN(C)CC(O)c1ccc(Cl)c2ccccc12` (stereo not drawn), the TGI in the assay on U251 CNS is above 90.6 µM; with MALME-3M melanoma, 86 µM; with ACHN renal, above 100 µM; in the assay on HOP-92 NSCLC, above 68.2 µM; with MOLT-4 leukemia, 55.8 µM; with IGROV1 ovarian, above 85.7 µM. The figures for the TGI with A549 NSCLC, with BT-549 breast and in the assay on MDA-MB-231 breast were above 100 µM, above 100 µM and above 73.4 µM, respectively.
Consider `CCN(CCCOc1ccccc1)CCN(CC)CCCOc1ccccc1`, for which the TGI with U251 CNS came out at 27.5 µM; in the assay on MALME-3M melanoma it was 32 µM; with ACHN renal, 31.5 µM; in the assay with MOLT-4 leukemia, 16.8 µM; in the assay with IGROV1 ovarian it was 23.5 µM; with A549 NSCLC it was 28.7 µM. The TGI in the assay with BT-549 breast was 29.1 µM; with MDA-MB-231 breast, 39.7 µM.
In the case of `COC1CC(N)(c2ccccc2)C(O)C(C)O1` (stereo not drawn), the TGI in the assay with U251 CNS, with MALME-3M melanoma, in the assay with ACHN renal, with HOP-92 NSCLC, in the assay on MOLT-4 leukemia and in the assay with IGROV1 ovarian was above 100 µM throughout. Besides, the TGI in the assay with A549 NSCLC, in the assay on BT-549 breast and in the assay on MDA-MB-231 breast was above 100 µM each time.
`COc1cc2c(c(O)c1O)C(=O)C1CCC(=O)N1C2c1cccc2ccccc12` (stereo not drawn): the TGI in the assay on U251 CNS, with ACHN renal, with HOP-92 NSCLC, with MOLT-4 leukemia, in the assay with IGROV1 ovarian and with A549 NSCLC was above 50 µM in each case. The compound also showed a TGI in the assay with BT-549 breast above 50 µM.
`O=S1(=O)c2ccccc2Oc2ccc(C(/C=N/O)=N/O)cc21`: the TGI with U251 CNS was above 100 µM; in the assay with MALME-3M melanoma, 25.7 µM; with ACHN renal, above 100 µM; in the assay with HOP-92 NSCLC it was above 100 µM; with MOLT-4 leukemia, above 100 µM; in the assay with IGROV1 ovarian, 68.9 µM. Moreover, the TGI in the assay on A549 NSCLC and in the assay with MDA-MB-231 breast was above 100 µM in each case.
Usually GI50 stands for the concentration giving 50% growth inhibition. On to `CCCCN(CCCC)Cc1cc(Nc2ccnc3cc(Cl)ccc23)ccc1O`, for which the GI50 in the assay with U251 CNS was 7.82 µM; with MALME-3M melanoma, 24.5 µM; in the assay with HOP-92 NSCLC it was 0.982 µM; in the assay with MOLT-4 leukemia it was 37.5 µM; in the assay with IGROV1 ovarian, 7.36 µM; in the assay on A549 NSCLC it was 19.8 µM. The TGI was above 100 µM with U251 CNS; above 100 µM with MALME-3M melanoma; 22.9 µM in the assay with HOP-92 NSCLC; above 100 µM in the assay on MOLT-4 leukemia; above 100 µM with IGROV1 ovarian; above 100 µM in the assay on A549 NSCLC.
For `O=C1[C@H](O)[C@@H]2C(O)O[C@H]3[C@@H]2N1C[C@H]3[Si](c1ccccc1)(c1ccccc1)c1ccccc1` (stereo partly drawn), the TGI in the assay on U251 CNS, with ACHN renal, in the assay with MOLT-4 leukemia, with IGROV1 ovarian, with A549 NSCLC and in the assay with BT-549 breast was above 100 µM in each case. The compound also had a TGI in the assay on MDA-MB-231 breast above 100 µM.
With `[N-]=[N+]=Nc1c(Cc2ccccc2)c(Cl)nc2ccccc12`, the TGI in the assay on MALME-3M melanoma is 41.8 µM; with ACHN renal, above 100 µM; in the assay with HOP-92 NSCLC it was 64.4 µM; with MOLT-4 leukemia it was above 100 µM; with IGROV1 ovarian, above 100 µM; with A549 NSCLC, above 100 µM. Besides, in the assay on MDA-MB-231 breast, the TGI worked out at 56.7 µM.
For `Nc1n(CC(=O)c2ccccc2)nc2sc(-c3ccccc3)n[n+]12`, the TGI with U251 CNS was 34.2 µM; in the assay with ACHN renal it was 29.6 µM; in the assay with MOLT-4 leukemia, above 100 µM; with IGROV1 ovarian, 56.6 µM; with A549 NSCLC, 90.6 µM; with BT-549 breast it was above 100 µM.
As to `COc1cc(C2c3c(ccc4ccccc34)C(=O)C3CCC(=O)N32)cc(OC)c1OC` (stereo not drawn), the TGI in the assay on U251 CNS, with ACHN renal, with HOP-92 NSCLC, with MOLT-4 leukemia, with IGROV1 ovarian and with A549 NSCLC was above 50 µM each time. The TGI with BT-549 breast and in the assay with MDA-MB-231 breast was above 50 µM each time.
For `COc1cccc(N2C(=O)CSC2c2cccc(Oc3ccccc3)c2)c1` (stereo not drawn), the TGI in the assay on U251 CNS is 19.3 µM; in the assay on MALME-3M melanoma it was 53.7 µM; with ACHN renal, 41 µM; in the assay with HOP-92 NSCLC, 62.8 µM; in the assay with MOLT-4 leukemia, 28.4 µM; with A549 NSCLC, above 100 µM. Moreover, the values for the TGI in the assay on BT-549 breast and in the assay on MDA-MB-231 breast were 45.6 µM and 79.1 µM, respectively.
On to `O=c1[nH]c2nc3ccccc3c(=O)n2/c1=C/c1ccc(Cl)cc1`, for which the TGI with U251 CNS, in the assay with MALME-3M melanoma, in the assay with ACHN renal, with HOP-92 NSCLC, with MOLT-4 leukemia and with A549 NSCLC was above 100 µM in each case. Also, the TGI was 46.2 µM with BT-549 breast and above 100 µM in the assay on MDA-MB-231 breast.
On to `O=C(Nc1ccccc1)N(C1=NCC(CI)S1)c1ccc(F)c(F)c1` (stereo not drawn), for which the TGI was above 100 µM in the assay on U251 CNS; above 100 µM with MALME-3M melanoma; above 100 µM with ACHN renal; 26.3 µM in the assay on HOP-92 NSCLC; 61.4 µM with MOLT-4 leukemia; above 100 µM in the assay with IGROV1 ovarian. In addition, the TGI in the assay with A549 NSCLC is above 100 µM; in the assay with MDA-MB-231 breast, 83.5 µM.
As to `Cn1c(=O)c2c(nc3n(CC(O)CCl)c(=O)ccn23)n(C)c1=O` (stereo not drawn), the TGI with U251 CNS is above 100 µM; with ACHN renal, above 100 µM; in the assay on HOP-92 NSCLC, above 100 µM; with MOLT-4 leukemia it was 92.1 µM; with IGROV1 ovarian, above 100 µM; with A549 NSCLC, above 100 µM. For the same compound, the TGI with BT-549 breast and in the assay with MDA-MB-231 breast was above 100 µM throughout.
For `O=C(Nc1ccccc1F)c1cc2ccc(O)cc2oc1=Nc1cccc(F)c1`, the TGI in the assay on U251 CNS amounted to 29.8 µM; with MALME-3M melanoma, 98.7 µM; in the assay on ACHN renal it was 29.5 µM; in the assay with MOLT-4 leukemia it was 44.6 µM; with IGROV1 ovarian, 14.6 µM; with A549 NSCLC, 33.7 µM. The compound further returned a TGI in the assay on BT-549 breast of 39.4 µM.
With `C[C@@]1(O)C2CC3CC1(c1ccccc1)CC(/C3=N/O)/C2=N\O` (stereo partly drawn), the TGI with U251 CNS, in the assay with MALME-3M melanoma, with ACHN renal, in the assay with HOP-92 NSCLC, with MOLT-4 leukemia and in the assay on IGROV1 ovarian was above 100 µM in each case. In addition, the TGI in the assay on A549 NSCLC and in the assay with MDA-MB-231 breast was above 100 µM each time.
